Laboratory results taken from US11192863B2, “Antiviral compounds and methods” (Biotron Limited, priority 2003, dated 2021).
Where “and” joins values, the source holds several entries; their conditions need not be identical. Equal values may be shown once. Where a name gives a salt, the structure may show the parent alone. Read-outs that look alike come from different tables or passages of the source.

Assays:
[1] = molecular target: Vpu protein (Human immunodeficiency virus type 1 group M subtype B, UniProt P05919); conditions: halo of growth score between zero and six; XL1-blue E. coli with pPL-Vpu, no adenine, 37° C.
[2] = molecular target: SARS-CoV E protein (Severe acute respiratory syndrome coronavirus, UniProt P59637); type: cell-based
[3] = system: MHV (strain MHV-A59); conditions: L929 cells

Sequence of SARS-CoV E protein (P59637 whole entry, looked up): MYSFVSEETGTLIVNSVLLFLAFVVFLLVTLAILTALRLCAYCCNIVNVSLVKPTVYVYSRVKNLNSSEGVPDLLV
Sequence of Vpu protein (P05919 whole entry): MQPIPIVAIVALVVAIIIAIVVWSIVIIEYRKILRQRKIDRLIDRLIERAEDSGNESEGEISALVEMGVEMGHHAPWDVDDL

Compound	Vpu Inhibition (score/# of times tested) [1]	SARS E protein Inhibition (score/# of times tested) [2]	Percent reduction in Plaque number/# experiments ([3]; 1 uM)	Percent reduction in Plaque number/# experiments ([3]; 10 uM)	Percent reduction in Plaque number/# experiments ([3]; 20 uM)	Toxic (noted in place of plaque reduction) ([3]; 20 uM)
N=C(N)NC(=O)c1ccc2ccccc2c1Br [1-bromo-2-napthoylguanidine]	0.06/2 score	0.25/1 score	27/1%	27/2%	31/1%	
N=C(N)NC(=O)/C=C/c1c(F)cccc1Cl [2-chloro-6-fluorocinnamoylguanidine]		0.25/1 score	9/1%	84/2%	100/1%	
N=C(N)NC(=O)/C=C/c1ccc2c(c1)OCO2 [3,4-(methylenedioxy)cinnamoylguanidine]	1.88/2 score	1.25/1 score	45/3%	82/3%	93/3%	
NC(N)=NC(=O)c1nc(Cl)c(N2CCCCCC2)nc1O [3-hydroxy-5-hexamethyleneimino-amiloride]			1/1%	22/2%	16/1%	
COc1nc(N2CCCCCC2)c(Cl)nc1C(=O)N=C(N)N [3-methoxy-HMA, 3-methoxy-5-(N,N-Hexamethylene)-amiloride]	0.2/4 score	1.25/1 score	35/1%	31/1%	15/1%	
NC(N)=NC(=O)c1cnc2ccccc2c1 [3-quinolinoylguanidine]			30/1%	36/2%	27/1%	
N=C(N)NC(=O)/C=C/C=C/c1ccccc1Br [5-(2′-bromophenyl)penta-2,4-dienoylguanidine]			57/1%	100/1%		Toxic
CCN(c1nc(N)c(C(=O)N=C(N)N)nc1Cl)C(C)C [5-(N-Ethyl-N-isopropyl)amiloride, 5-(N-ethyl-N-isopropyl)amiloride]	0.6/3 score	1.07/2 score				
CC(C)CN(C)c1nc(N)c(C(=O)N=C(N)N)nc1Cl [5-(N-Methyl-N-isobutyl)amiloride, 5-(N-methyl-N-isobutyl)amiloride]	0.8/2 score	3.13/2 score	44/2%	85/1%	92/1%	
NC(N)=NC(=O)c1nc(I)c(N)nc1N [6-Iodoamiloride]		1.75/2 score	0/1%	21/1%	28/1%	
N=C(N)NC(=O)c1ccc2cc(Br)ccc2c1 [6-bromo-2-napthoylguanidine]		0.25/1 score	19/1%	43/1% and 37/2%	65/1%	
N=C(N)NC(=O)/C=C/c1ccccc1[N+](=O)[O-] [(2-Nitrocinnamoyl)guanidine]	0.4/2 score		47/1%	77/2%	97/1%	
N=C(N)NC(=O)CCc1ccccc1 [(3-phenylpropanoyl)guanidine]	0.2/4 score	0.73/5 score	0/1%	03/1%	51/1%	
N=C(N)NC(=O)/C=C/c1ccc([N+](=O)[O-])cc1 [(4-Nitrocinnamoyl)guanidine]			40/3%	75/3%	97/1%	
N=C(N)NC(=O)Cc1ccccc1 [(Phenylacetyl)guanidine]		0.32/3 score	3/1%	22/1%	35/1%	
NC(N)=NC(=O)c1ccc2ccccc2n1 [(Quinoline-2-carbonyl)guanidine]		0.41/1 score	12/1%	84/1%	86/1%	
Cl.NC(N)=NC(=O)c1nc(Cl)c(N)nc1N [Amiloride•HCl, reference compound]			−5/1%	18/1%	21/1%	

Compound	Vpu Inhibition (score/# of times tested) [1]	SARS E protein Inhibition (score/# of times tested) [2]	Percent reduction in Plaque number/# experiments ([3]; 1 uM)	Percent reduction in Plaque number/# experiments ([3]; 10 uM)	Percent reduction in Plaque number/# experiments ([3]; 20 uM)	Toxic (noted in place of plaque reduction) ([3]; 20 uM)
N/C(=N\C(=O)c1nc(Cl)c(N)nc1N)NCc1ccccc1 [Benzamil hydrochloride, N-Benzyl-N′-(3,5-diamino-6-chloro-pyrzine-2-carbonyl)-guanidine]	0.9/3 score	1.32/2 score	0/1%	26/1%	0/1%	
N=C(N)NC(=O)c1ccccc1 [Benzyoylguanidine, Benzoylguanidine]	0.88/2 score		14/1%	39/2%	22/1%	
N=C(NC(=O)c1cccc2ccccc12)NC(=O)c1cccc2ccccc12 [N,N′-bis(1-napthoyl)guanidine]			35/1%	52/2%	58/1%	
N=C(NC(=O)c1ccc2ccccc2c1)NC(=O)c1ccc2ccccc2c1 [N,N′-bis(2-napthoyl)guanidine]			3/1%	3/2%	5/1%	
O=C(/C=C/c1ccccc1)NC(=Nc1ccccc1)NC(=O)/C=C/c1ccccc1 [N,N′-bis-(cinnamoyl)-N″-phenylguanidine]	0.94/2 score		31/1%	38/2%	16/1%	
N/C(=N/C(=O)c1ccc2ccccc2c1)Nc1ccccc1 [N-(2-napthoyl)-N′-phenylguanidine]		0.07/2 score				
N=C(NC(=O)/C=C/c1ccccc1)Nc1ccccc1 [N-(cinnamoyl)-N′phenylguanidine, N-(cinnamoyl)-N′-phenylguanidine]	1.25/3 score	1.19/2 score	13/1%	88/1%	83/1%	
N/C(=N\C(=O)/C=C/c1ccccc1)NC(=O)c1ccccc1 [N-Benzoyl-N′-cinnamoylguanidine]	0.06/2 score	0.13/2 score	14/1%	0/1%	0/1%	
CN(C)C(=N)NC(=O)/C=C/c1ccccc1 [N-Cinnamoyl-N′,N′-dimethylguanidine]			24/2%	65/3%	92/2%	
NC(N)=NC(=O)c1nc(-c2ccccc2)c(N)nc1N [N-amidino-3,5-diamino-6-phenyl-2-pyrazinecarboxamide]			25/1%	39/2%	53/1%	
NC(N)=NC(=O)c1nc(-c2ccccc2)c(N2CCCCCC2)nc1N [N-amidino-3-amino-5-hexamethyleneimino-6-phenyl-2-pyrazinecarboxamide]	0.6/2 score		48/1%	52/2%	84/1%	
NC(N)=NC(=O)c1nc(Cl)c(-c2ccccc2)nc1N [N-amidino-3-amino-5-phenyl-6-chloro-2-pyrazinecarboxamide]	0.5/11 score		9/1%	20/2%	20/1%	
O=C(/C=C/c1ccccc1)N=C(Nc1ccccc1)Nc1ccccc1 [N″-Cinnamoyl-N,N′-diphenylguanidine]			34/1%	72/2%	97/1%	
N/C(=N\C(=O)c1nc(Cl)c(N)nc1N)Nc1ccccc1 [Phenamil methanesulfonate salt, N-(3,5-Diamino-6-chloro-pyrazine-2-carbonyl)-N′-phenylguanidine]	0.9/5 score	0.13/2 score				
N=C(N)NC(=O)/C=C/c1cccnc1 [[3-(3-Pyridyl)acryloyl]guanidine]		0.67/3 score	21/2%	73/2%	81/2%	
C/C(=C\c1ccc(N(C)C)cc1)C(=O)NC(=N)N [[(E)-3-(4-Dimethylaminophenyl)-2-methylacryloyl]guanidine]			37/1%	45/1%	56/1%	
